The values that follow come from ChEMBL document CHEMBL1150015, “Rational design of purine nucleoside phosphorylase inhibitors: Design of 2-(2-Haloethyl) and 2-ethenyl substituted quinazolinone alkylating agents” (Bioorg Med Chem Lett, 1992).

This experiment deals with T1, Purine nucleoside phosphorylase (Homo sapiens) (UniProt P00491).
T1 sequence (whole entry): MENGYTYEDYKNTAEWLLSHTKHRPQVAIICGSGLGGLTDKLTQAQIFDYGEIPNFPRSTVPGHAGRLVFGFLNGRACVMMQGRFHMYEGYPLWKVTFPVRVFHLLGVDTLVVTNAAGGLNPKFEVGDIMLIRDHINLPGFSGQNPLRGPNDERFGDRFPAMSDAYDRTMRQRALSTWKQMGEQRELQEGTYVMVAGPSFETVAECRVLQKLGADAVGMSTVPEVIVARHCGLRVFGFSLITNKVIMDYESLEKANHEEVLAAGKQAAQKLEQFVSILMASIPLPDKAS
The experiment can be described thus: Second order rate constant for the inactivation of Purine Nucleoside Phosphorylase by compound in 0.05 M Phosphate Buffer and at a pH 7.4 (u=0.1 KCl) at 30.0 degree Centigrade.
In the case of `O=C1C=CC(=O)c2c(O)nc(CBr)nc21`, the k was 3.7 M⁻¹ s⁻¹.

`O=C1C=CC(=O)c2c(O)ncnc21` displayed a k of 1.62 M⁻¹ s⁻¹.

In turn, `Nc1nc(O)c2c(n1)C(=O)C=CC2=O` displayed a k of 4.73 M⁻¹ s⁻¹.

`O=C1C=CC(=O)c2c(O)nc(CCBr)nc21` showed a k of 7.97 M⁻¹ s⁻¹.

`C=Cc1nc(O)c2c(n1)C(=O)C=CC2=O` returned a k of 3.1 M⁻¹ s⁻¹.

Turning to `O=C1C=CC(=O)c2c(O)nc(-c3ccccc3)nc21`, the k was determined as 15.9 M⁻¹ s⁻¹.
